According to patent publication US8309546B2, “Morpholinopurine derivatives” (Daiichi Sankyo Company, Limited, priority 2008, dated 2012):

Legend:
[1] = test system: human endometrial cancer cell strain AN3CA; assay: Cell growth inhibition test (MTT), AN3CA; format: cell-based; conditions: AN3-CA, 72 h, 3 days culture, read-out: concentration exhibiting anti-cell effect (GI50)
Method in brief: (§1)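 Cells were seeded per well (AN3CA 5000, IGROV1 1000, HT29 5000), dosed next day and cultured 3 days at 37° C in 5% CO2. Viable cells were read by MTT (4 h, DMSO-solubilized formazan, A540). GI50 was interpolated between the two concentrations bracketing 50% growth rate (T/C %, corrected for day-0 absorbance).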

[2] = test system: human ovary cancer cell strain IGROV1; assay: Cell growth inhibition test (MTT), IGROV1; format: cell-based; conditions: IGROV-1, 72 h, IGROV1, 3 days culture, read-out: concentration exhibiting anti-cell effect (GI50)
Method in brief: as §1

[3] = test system: human colon cancer cell strain HT29; assay: Cell growth inhibition test (MTT), HT29; format: cell-based; conditions: HT-29, 72 h, HT29, 3 days culture, read-out: concentration exhibiting anti-cell effect (GI50)
Method in brief: as §1

[4] = biological target: T1, human mTOR (His-tagged mTOR (1362C)) (Homo sapiens, UniProt P42345); assay: mTOR kinase activity inhibition assay; format: biochemical; conditions: HTRF, read-out: IC50 against mTOR
T1 construct: the 1362 to 2549 amino acid portion on the C terminus side of human mTOR; His tag (N); made in house
Method in brief: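 Crude His-tagged mTOR (aa 1362–2549) from stable HEK293 cells, with 8 μg/ml biotinylated peptide in 50 mM HEPES pH 7.5, 20 mM MnCl2; compound diluted in 20 μM ATP solution, reaction 3 h at room temperature. Phospho-peptide detected by HTRF (anti-phospho-S6K Thr389 cryptate/streptavidin-XL665, overnight at 4°C), 665/620 nm ratio. IC50 derived from curve fit of % inhibition.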

PI3Kα = PI3Kα (Homo sapiens, UniProt P42336); assay: PI3K kinase activity inhibition assay; format: biochemical; conditions: Kinase-Glo Plus ATP detection, read-out: IC50 against PI3K
Method in brief: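 PI3Kα (50 nM solution) was reacted with 30 μM ATP and 45 μM PIP2 solutions, each in HEPES pH 7.4 with MgCl2 and DTT, for 2 h at room temperature. Remaining ATP was measured by Kinase-Glo Plus luminescence, and inhibition was derived from ATP consumed. IC50 was taken from curve fitting of the serial dilutions.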

PI3Kα, sequence (P42336 whole entry, species assumed): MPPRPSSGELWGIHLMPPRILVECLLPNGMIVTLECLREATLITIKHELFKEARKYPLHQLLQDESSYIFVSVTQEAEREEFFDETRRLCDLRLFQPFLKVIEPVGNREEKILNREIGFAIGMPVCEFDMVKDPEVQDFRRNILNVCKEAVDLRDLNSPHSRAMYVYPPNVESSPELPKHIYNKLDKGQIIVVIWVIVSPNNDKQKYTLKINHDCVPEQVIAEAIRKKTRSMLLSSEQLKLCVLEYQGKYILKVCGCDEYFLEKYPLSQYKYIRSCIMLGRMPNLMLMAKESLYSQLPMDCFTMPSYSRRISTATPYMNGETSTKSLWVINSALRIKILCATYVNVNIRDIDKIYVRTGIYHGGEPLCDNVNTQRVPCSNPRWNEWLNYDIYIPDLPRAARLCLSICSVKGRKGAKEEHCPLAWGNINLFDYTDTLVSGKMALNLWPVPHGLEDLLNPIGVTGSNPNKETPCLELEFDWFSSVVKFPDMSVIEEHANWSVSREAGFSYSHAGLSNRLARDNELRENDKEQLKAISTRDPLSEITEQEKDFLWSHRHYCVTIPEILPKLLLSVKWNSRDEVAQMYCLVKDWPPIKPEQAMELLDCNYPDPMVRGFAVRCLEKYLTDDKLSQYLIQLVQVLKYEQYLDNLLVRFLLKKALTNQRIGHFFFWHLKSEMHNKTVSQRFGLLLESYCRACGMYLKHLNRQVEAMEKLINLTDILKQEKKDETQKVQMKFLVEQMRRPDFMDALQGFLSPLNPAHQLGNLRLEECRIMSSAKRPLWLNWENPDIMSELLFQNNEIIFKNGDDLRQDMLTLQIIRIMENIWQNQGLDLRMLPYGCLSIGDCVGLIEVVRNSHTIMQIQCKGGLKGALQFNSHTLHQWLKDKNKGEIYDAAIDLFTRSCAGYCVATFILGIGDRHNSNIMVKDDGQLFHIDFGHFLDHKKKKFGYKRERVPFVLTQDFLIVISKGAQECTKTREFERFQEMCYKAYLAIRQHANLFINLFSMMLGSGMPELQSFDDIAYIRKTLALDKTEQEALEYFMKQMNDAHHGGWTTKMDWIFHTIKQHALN
PI3Kα, sequence (P27986 whole entry partner, species assumed): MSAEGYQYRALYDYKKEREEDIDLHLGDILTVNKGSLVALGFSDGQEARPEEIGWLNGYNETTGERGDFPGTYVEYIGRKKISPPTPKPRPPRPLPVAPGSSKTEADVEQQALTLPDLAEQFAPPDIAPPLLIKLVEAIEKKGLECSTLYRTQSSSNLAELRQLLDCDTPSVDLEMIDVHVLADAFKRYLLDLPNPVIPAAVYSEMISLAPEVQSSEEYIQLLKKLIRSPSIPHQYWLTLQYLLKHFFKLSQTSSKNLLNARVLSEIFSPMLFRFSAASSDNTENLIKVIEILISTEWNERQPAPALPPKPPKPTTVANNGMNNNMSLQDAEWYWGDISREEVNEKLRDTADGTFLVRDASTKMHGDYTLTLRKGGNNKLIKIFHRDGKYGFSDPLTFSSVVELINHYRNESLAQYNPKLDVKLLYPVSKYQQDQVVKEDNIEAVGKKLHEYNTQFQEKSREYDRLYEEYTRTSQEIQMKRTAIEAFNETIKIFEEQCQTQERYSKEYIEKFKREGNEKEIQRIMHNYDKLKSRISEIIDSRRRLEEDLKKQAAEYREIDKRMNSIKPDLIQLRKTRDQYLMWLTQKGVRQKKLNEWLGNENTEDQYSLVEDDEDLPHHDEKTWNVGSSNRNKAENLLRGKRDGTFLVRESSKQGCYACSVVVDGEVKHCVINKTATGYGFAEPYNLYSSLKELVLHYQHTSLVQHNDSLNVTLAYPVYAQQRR
T1 sequence (P42345 1362-2549): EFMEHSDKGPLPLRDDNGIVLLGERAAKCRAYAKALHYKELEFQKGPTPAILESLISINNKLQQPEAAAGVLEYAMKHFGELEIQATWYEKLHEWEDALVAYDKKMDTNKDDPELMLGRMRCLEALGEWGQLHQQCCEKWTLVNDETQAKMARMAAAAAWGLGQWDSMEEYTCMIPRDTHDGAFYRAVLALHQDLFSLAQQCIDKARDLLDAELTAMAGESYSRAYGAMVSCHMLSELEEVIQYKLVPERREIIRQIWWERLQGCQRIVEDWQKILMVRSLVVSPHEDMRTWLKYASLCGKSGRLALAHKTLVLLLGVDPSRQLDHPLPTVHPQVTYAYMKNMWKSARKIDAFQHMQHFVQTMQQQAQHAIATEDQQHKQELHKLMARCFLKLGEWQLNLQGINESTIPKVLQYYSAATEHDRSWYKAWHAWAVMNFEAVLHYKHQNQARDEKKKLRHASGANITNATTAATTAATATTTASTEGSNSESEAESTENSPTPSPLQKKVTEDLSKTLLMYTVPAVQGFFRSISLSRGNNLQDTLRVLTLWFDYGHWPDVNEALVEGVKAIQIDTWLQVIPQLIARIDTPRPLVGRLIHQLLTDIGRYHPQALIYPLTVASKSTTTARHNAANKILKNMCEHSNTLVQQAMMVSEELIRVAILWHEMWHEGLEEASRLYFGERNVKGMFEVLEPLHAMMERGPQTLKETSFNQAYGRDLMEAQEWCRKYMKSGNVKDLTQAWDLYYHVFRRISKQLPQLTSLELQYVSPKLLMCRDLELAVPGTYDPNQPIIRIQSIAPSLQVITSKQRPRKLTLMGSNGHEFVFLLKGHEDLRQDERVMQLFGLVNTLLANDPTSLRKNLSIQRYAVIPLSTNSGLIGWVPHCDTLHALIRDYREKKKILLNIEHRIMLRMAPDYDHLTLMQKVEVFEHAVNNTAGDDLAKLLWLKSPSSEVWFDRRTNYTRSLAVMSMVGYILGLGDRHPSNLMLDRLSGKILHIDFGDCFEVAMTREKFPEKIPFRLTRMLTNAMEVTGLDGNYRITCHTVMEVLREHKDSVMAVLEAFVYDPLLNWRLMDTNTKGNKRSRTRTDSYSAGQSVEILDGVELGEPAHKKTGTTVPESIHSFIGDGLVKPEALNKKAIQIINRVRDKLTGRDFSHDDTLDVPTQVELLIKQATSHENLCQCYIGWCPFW

Compound	GI50 [1] [nM]	GI50 [2] [nM]	GI50 [3] [nM]	IC50 [4] [nM]	IC50 (PI3Kα) [nM]
Cc1nc(N)ncc1-c1nc(N2CCOCC2)c2nc(N3CCC(CO)CC3)n(CC3CC3)c2n1 [Example 37, {1-[2-(2-Amino-4-methylpyrimidin-5-yl)-9-(cyclopropylmethyl)-6-morpholin-4-yl-9H-purin-8-yl]piperidin-4-yl}methanol]	≤ 5000	≤ 5000	≤ 5000	100 to 500	10 to 20
C[C@@H]1CN(c2nc3c(N4CCOCC4)nc(-c4cnc(N)nc4)nc3n2CC2CC2)C[C@H](C)N1S(C)(=O)=O [Example 38, 5-{9-(Cyclopropylmethyl)-8-[cis-3,5-dimethyl-4-(methylsulfonyl)piperazin-1-yl]-6-morpholin-4-yl-9H-purin-2-yl}pyrimidin-2-amine]	≤ 5000	≤ 5000	≤ 5000	10 to 30	10 to 20
CNc1ncc(-c2nc(N3CCOCC3)c3nc(N4CCOCC4)n(CC4CC4)c3n2)cn1 [Example 39, 5-[9-(Cyclopropylmethyl)-6,8-dimorpholin-4-yl-9H-purin-2-yl]-N-methylpyrimidin-2-amine]	≤ 5000	≤ 5000	≤ 5000	30 to 100	< 10
CN(C)CC(=O)N1CCN(c2nc3c(N4CCOCC4)nc(-c4cnc(N)nc4)nc3n2CC2CC2)CC1 [Example 40, 5-[9-(Cyclopropylmethyl)-8-{4-[(dimethylamino)acetyl]piperazin-1-yl}-6-morpholin-4-yl-9H-purin-2-yl]pyrimidin-2-amine]	≤ 5000	≤ 5000	≤ 5000	100 to 500	10 to 20
CNCC(=O)N1CCN(c2nc3c(N4CCOCC4)nc(-c4cnc(N)nc4)nc3n2CC2CC2)CC1 [Example 41, 5-[9-(Cyclopropylmethyl)-8-{4-[(methylamino)acetyl]piperazin-1-yl}-6-morpholin-4-yl-9H-purin-2-yl]pyrimidin-2-amine]	≤ 5000	≤ 5000	≤ 5000	30 to 100	< 10
NCC(=O)N1CCN(c2nc3c(N4CCOCC4)nc(-c4cnc(N)nc4)nc3n2CC2CC2)CC1 [Example 42, 5-{8-[4-(Aminoacetyl)piperazin-1-yl]-9-(cyclopropylmethyl)-6-morpholin-4-yl-9H-purin-2-yl}pyrimidin-2-amine]	≤ 5000	≤ 5000	≤ 5000	30 to 100	< 10
CNc1ncc(-c2nc(N3CCOCC3)c3nc(N4CCN(S(C)(=O)=O)CC4)n(CC4CC4)c3n2)c(C)n1 [Example 43]	≤ 5000	≤ 5000	≤ 5000	100 to 500	10 to 20
CC(C)Cn1c(N2CCN(C(=O)N(C)C)CC2)nc2c(N3CCOCC3)nc(-c3cnc(N)nc3)nc21 [Example 45, 4-[2-(2-Aminopyrimidin-5-yl)-9-isobutyl-6-morpholin-4-yl-9H-purin-8-yl]-N,N-dimethylpiperazine-1-carboxamide]	≤ 5000	≤ 5000	≤ 5000	30 to 100	20 to 50
CC(C)n1c(N2CCN(S(C)(=O)=O)CC2)nc2c(N3CCOCC3)nc(-c3cnc(N)nc3)nc21 [Example 46, 5-{9-Isopropyl-8-[4-(methylsulfonyl)piperazin-1-yl]-6-morpholin-4-yl-9H-purin-2-yl}pyrimidin-2-amine]	≤ 5000	≤ 5000	≤ 5000	30 to 100	20 to 50
CC(C)Cn1c(N2CCCN(S(C)(=O)=O)CC2)nc2c(N3CCOCC3)nc(-c3cnc(N)nc3)nc21 [Example 49, 5-{9-Isobutyl-8-[4-(methylsulfonyl)-1,4-diazepan-1-yl]-6-morpholin-4-yl-9H-purin-2-yl}pyrimidin-2-amine]	≤ 5000	≤ 5000	≤ 5000	10 to 30	< 10
